Data: patent US20250034159A1, “INHIBITORS OF EPIDERMAL GROWTH FACTOR RECEPTOR” (ORIC Pharmaceuticals, Inc., priority 2021, published 2025)
pIC50: −log10 of the molar value.

Experiments:
BaF3_EGFR d19/CS cells = test: Biological Activity Assay D: BaF3 cell proliferation assay, EGFR exon 19 deletion/C797S (BaF3 d19/CS); format: cell-based; conditions: Ba/F3 EGFR; BaF3_EGFR d19/CS cells, ~72 hours, CellTiter-Glo; read-out: BaF3 d19/CS IC50
BaF3_EGFR LR/CS cells = test: Biological Activity Assay D: BaF3 cell proliferation assay, EGFR L858R/C797S mutant (BaF3 LR/CS); format: cell-based; conditions: Ba/F3 EGFR; BaF3_EGFR LR/CS cells, ~72 hours, CellTiter-Glo; read-out: BaF3 LR/CS IC50
[1] = target: recombinant human EGFR exon 19 deletion/C797S double mutant protein (Homo sapiens (Human), UniProt P00533, C797S/DEL746-750); test: Biological Activity Assay C: biochemical assay against EGFR exon 19 deletion/C797S protein (EGFR d19/CS)
Method in brief: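 Compounds were tested as 16-point serial dilutions (final DMSO 2.5%) with a Phosphosens peptide sensor/ATP working solution (40 uM/4 mM). The signal was read kinetically over 90 cycles at 120 s intervals. IC50s came from 4-parameter fits of per-well slopes.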

Ba/F3_EGFR WT cells = test: Biological Activity Assay D: BaF3 cell proliferation assay, EGFR wild-type (BaF3 WT); format: cell-based; conditions: Ba/F3 EGFR; Ba/F3_EGFR WT cells, ~72 hours, CellTiter-Glo; read-out: BaF3 WT IC50

Sequence of recombinant human EGFR exon 19 deletion/C797S double mutant protein (P00533 other isoform, or with tags, fused parts or gaps C797S/del 1-668/del 746-750 limits assumed): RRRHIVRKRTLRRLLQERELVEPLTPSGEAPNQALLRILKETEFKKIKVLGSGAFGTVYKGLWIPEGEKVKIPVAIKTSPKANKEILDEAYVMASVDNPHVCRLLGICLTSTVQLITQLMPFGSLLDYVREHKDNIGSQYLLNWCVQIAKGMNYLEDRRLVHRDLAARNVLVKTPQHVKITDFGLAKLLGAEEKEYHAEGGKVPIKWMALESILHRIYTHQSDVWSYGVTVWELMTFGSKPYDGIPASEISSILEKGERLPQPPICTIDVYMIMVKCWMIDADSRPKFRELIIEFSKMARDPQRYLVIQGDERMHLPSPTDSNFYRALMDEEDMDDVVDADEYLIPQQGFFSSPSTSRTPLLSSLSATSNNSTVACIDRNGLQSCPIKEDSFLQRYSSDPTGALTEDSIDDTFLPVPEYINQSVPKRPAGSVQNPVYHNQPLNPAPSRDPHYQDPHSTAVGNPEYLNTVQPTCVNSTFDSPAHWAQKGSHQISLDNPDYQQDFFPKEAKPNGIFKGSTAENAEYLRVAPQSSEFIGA

Row | Structure (SMILES) | pIC50 (BaF3_EGFR d19/CS cells) | pIC50 (BaF3_EGFR LR/CS cells) | pIC50 [1] | pIC50 (Ba/F3_EGFR WT cells)
1 | Fc1ccc(-c2nn([C@H]3C[C@H]4CC[C@@H](C3)O4)cc2-c2ncnc3oc(-c4ccccc4)cc23)cc1 [Example 172, 4-{3-(4-fluorophenyl)-1-[(1R,3r,5S)-8-oxabicyclo[3.2.1]octan-3-yl]-1H-pyrazol-4-yl}-6-phenylfuro[2,3-d]pyrimidine] | 6.70 | 7.48 | 8.84 | 5.15
2 | Cc1ccccc1-c1cc2c(-c3cn(C4CS(=O)(=O)C4)nc3-c3ccc(F)cc3)ncnc2o1 [Example 245, 3-{3-(4-fluorophenyl)-4-[6-(2-methylphenyl)furo[2,3-d]pyrimidin-4-yl]-1H-pyrazol-1-yl}-16-thietane-1,1-dione] | 7.16 | 7.09 | 9.51 | 5.49
3 | CC(=O)N1CC[C@@H](n2cc(-c3ncnc4oc(-c5ccccc5)cc34)c(-c3ccc(F)cc3)n2)C1 (single isomer, unassigned) [Example 128] | 6.90 | 6.98 | 9.39 | 5.76
4 | Cn1ccnc1-c1cc2c(-c3cn(C4CS(=O)(=O)C4)nc3-c3ccc(F)cc3)ncnc2o1 [Example 201, 3-{3-(4-fluorophenyl)-4-[6-(1-methyl-1H-imidazol-2-yl)furo[2,3-d]pyrimidin-4-yl]-1H-pyrazol-1-yl}-1λ6-thietane-1,1-dione] | 6.85 | 6.70 | 9.28 | 5.80
5 | Fc1ccc(-c2nn(C3CC(F)(F)C3)cc2-c2ncnc3oc(-c4ccccc4)cc23)cc1 [Example 170, 4-[1-(3,3-difluorocyclobutyl)-3-(4-fluorophenyl)-1H-pyrazol-4-yl]-6-phenylfuro[2,3-d]pyrimidine] | 6.67 | 7.01 | 8.86 | 5.32
6 | O=S1(=O)CC(n2cc(-c3ncnc4oc(C#CC5CNC5)cc34)c(-c3ccc(F)cc3)n2)C1 [Example 133, 3-[4-{6-[(azetidin-3-yl)ethynyl]furo[2,3-d]pyrimidin-4-yl}-3-(4-fluorophenyl)-1H-pyrazol-1-yl]-1λ6-thietane-1,1-dione] | 5.92 | 5.66 | 8.15 | 5.12
7 | Fc1ccc(-c2nn([C@@H]3CCOC[C@H]3F)cc2-c2ncnc3oc(-c4ccccc4)cc23)cc1 (single isomer, unassigned) [Example 153] | 7.22 | 7.65 | 8.98 | 5.74
8 | O=S1(=O)CC(n2cc(-c3ncnc4oc(-c5cccc(CN6CCOCC6)c5)cc34)c(-c3ccc(F)cc3)n2)C1 [Example 190, 3-[3-(4-fluorophenyl)-4-(6-{3-[(morpholin-4-yl)methyl]phenyl}furo[2,3-d]pyrimidin-4-yl)-1H-pyrazol-1-yl]-16-thietane-1,1-dione] | 7.23 | 7.19 | 9.74 | 5.67
9 | CS(=O)(=O)[C@H]1CC[C@@H](n2cc(-c3ncnc4oc(-c5ccccc5)cc34)c(-c3ccc(F)cc3)n2)C1 (single isomer, unassigned) [Example 193] | 6.59 | 6.76 | 8.79 | 5.52
10 | Fc1ccc(-c2nn([C@H]3CCOC[C@H]3F)cc2-c2ncnc3oc(-c4ccccc4)cc23)cc1 (racemic) [Example 184, 4-[1-(3-fluorooxan-4-yl)-3-(4-fluorophenyl)-1H-pyrazol-4-yl]-6-phenylfuro[2,3-d]pyrimidine] | 7.24 | 7.51 | 9.59 | 5.75
11 | O=S1(=O)CC(n2cc(-c3ncnc4oc(-c5cccc(C6CC6)c5)cc34)c(-c3ccc(F)cc3)n2)C1 [Example 178, 3-{4-[6-(3-cyclopropylphenyl)furo[2,3-d]pyrimidin-4-yl]-3-(4-fluorophenyl)-1H-pyrazol-1-yl}-16-thietane-1,1-dione] | 6.73 | 7.05 | 8.64 | 5.28
12 | C[C@H]1C[C@@H](n2cc(-c3ncnc4oc(-c5ccccc5)cc34)c(-c3ccc(F)cc3)n2)CN1S(C)(=O)=O [Example 198, 4-{3-(4-fluorophenyl)-1-[(3R,5S)-1-(methanesulfonyl)-5-methylpyrrolidin-3-yl]-1H-pyrazol-4-yl}-6-phenylfuro[2,3-d]pyrimidine] | 7.29 | 7.75 | 9.14 | 6.15

These reach a higher pIC50 (BaF3_EGFR d19/CS cells). Values come first.

Row | pIC50 (BaF3_EGFR d19/CS cells) | pIC50 (BaF3_EGFR LR/CS cells) | pIC50 [1] | pIC50 (Ba/F3_EGFR WT cells) | Structure (SMILES)
13 | 7.38 | 7.38 | 9.62 | 6.08 | O=S1(=O)CC(n2cc(-c3ncnc4oc(-c5ccsn5)cc34)c(-c3ccc(F)cc3)n2)C1 [Example 235, 3-{3-(4-fluorophenyl)-4-[6-(1,2-thiazol-3-yl)furo[2,3-d]pyrimidin-4-yl]-1H-pyrazol-1-yl}-1λ6-thietane-1,1-dione]
14 | 7.58 | 8.11 | 10.22 | 5.74 | O=S1(=O)CCC(n2cc(-c3ncnc4[nH]c(-c5ccccc5)nc34)c(-c3ccc(F)cc3)n2)C1 (centres unmarked) [Example 171, 3-[3-(4-fluorophenyl)-4-(8-phenyl-9H-purin-6-yl)-1H-pyrazol-1-yl]-1λ6-thiolane-1,1-dione]
15 | 7.63 | 7.79 | 9.67 | 6.14 | Cn1cnc(-c2cc3c(-c4cn([C@H]5CC5(F)F)nc4-c4ccc(F)cc4)ncnc3o2)c1 (single isomer, unassigned) [Example 274]
16 | 7.66 | 7.99 | 9.57 | 6.21 | CS(=O)(=O)[C@H]1C[C@@H](n2cc(-c3ncnc4oc(-c5ccccc5)cc34)c(-c3ccc(F)cc3)n2)C1 [Example 163, 4-{3-(4-fluorophenyl)-1-[(1s,3s)-3-(methanesulfonyl)cyclobutyl]-1H-pyrazol-4-yl}-6-phenylfuro[2,3-d]pyrimidine]
17 | 7.77 | 8.05 | 9.92 | 6.20 | O[C@H]1C[C@@H](n2cc(-c3ncnc4oc(-c5ccccc5)cc34)c(-c3ccc(F)cc3)n2)C1 [Example 120, (1s,3s)-3-(3-(4-Fluorophenyl)-4-(6-phenylfuro[2,3-d]pyrimidin-4-yl)-1H-pyrazol-1-yl)cyclobutan-1-ol]
18 | 7.77 | 7.98 | 9.85 | 6.54 | CN(c1cccc(-c2cc3c(-c4cn(C5CS(=O)(=O)C5)nc4-c4ccc(F)cc4)ncnc3o2)c1)S(C)(=O)=O [Example 203, N-(3-{4-[1-(1,1-dioxo-1λ6-thietan-3-yl)-3-(4-fluorophenyl)-1H-pyrazol-4-yl]furo[2,3-d]pyrimidin-6-yl}phenyl)-N-methylmethanesulfonamide]
19 | 7.92 | 8.00 | 9.92 | 5.63 | CC(C)(O)Cn1cc(-c2ncnc3[nH]c(-c4ccccc4)nc23)c(-c2ccc(F)cc2)n1 [Example 130, 1-[3-(4-Fluorophenyl)-4-(8-phenyl-9H-purin-6-yl)-1H-pyrazol-1-yl]-2-methylpropan-2-ol]
20 | 8.05 | 8.18 | 9.87 | 6.35 | Cn1cnc(-c2cc3c(-c4cn([C@H]5C[C@@H](F)C5)nc4-c4ccc(F)cc4)ncnc3o2)c1 [Example 264, 4-{1-[(1s,3s)-3-fluorocyclobutyl]-3-(4-fluorophenyl)-1H-pyrazol-4-yl}-6-(1-methyl-1H-imidazol-4-yl)furo[2,3-d]pyrimidine]
